Here are results for six molecules from article PMC11484942, “Rumicidins are a family of mammalian host-defense peptides plugging the 70S ribosome exit tunnel” (Nature Communications, 2024).

Like-named read-outs stand apart in the source and are kept apart here. Ends that are not written are not given here.

The test system of one series is E. coli strains. Conditions: cited from earlier work. From the text:
This highly cationic fragment is important for both high affinity binding of Bac7 to the ribosome and its penetration inside bacterial cells. The effect of N-terminal shortening of rumicidin-1 was not so marked: activities of the analogs 4-29 and 6-29 decreased only two-fold, while the MIC values of the analogs 9-29 and 11-29 against E. coli were ≥4- ...

Series [1] has as its system E. coli BW25113 ΔtolC pDualrep2. The experiment in a line: pDualrep2 double-reporter assay. In kind it is cell-based, Escherichia coli. Conditions: agar plate, overnight 37 °C. How it is done: For in vivo bioactivity test, the reporter strain BW25113 ΔtolC-pDualrep2 was used as previously described. Briefly, 10 µL of solutions of tested peptides (0.2 mM of full-length rumicidin isoforms; 0.5 mM of Rum-1[1-22] and Rum-1[9-29]) were applied to an agar plate contained a lawn of the reporter strain. 5 mg/ml erythromycin (Ery, 1 µL) and 25 µg/ml levofloxacin (Lev, 1 µL) solutions were used as control samples. After being incubated overnight at 37 °C, the plate was scanned by ChemiDoc (Bio-Rad) using “Cy3-blot” settings for RFP and “Cy5-blot” for the Katushka2S protein. At least, two independent experiments were performed, and the observed effects were the same.

The test system of another series is E. coli 1057 WT. The experiment in a line: microbe, parasite or virus in culture. In kind it is cell-based, Escherichia coli. The following applies: Escherichia coli, 1057WT, 24 h; MHB + 0.9% NaCl.
Another series deals with 70S initiation complexes. The series is described as follows: Peptide bond formation (fMet-[14C]Val dipeptide). The following applies: 30 µM amicoumacin A; 2 min 37 °C; three replicates; intact complexes 77 ± 5%. In kind it is biochemical. The protocol:
Initiation complexes and ternary complexes were prepared as described previously[21],[59]. Where necessary initiation complexes were supplemented with rumicidin-1 (1 μM) or amicoumacin A (30 μM) followed by additional incubation for 5 min at 37 °C. To analyze formation of dipeptide fMet-Val, 0.2 μM 70S initiation complexes containing fMet-tRNA^fMet in the P site were mixed with 0.375 μM ternary complexes EF-Tu⋅GTP⋅[^14C]Val-tRNA^Val (444 dpm/pmol) and incubated for 2 min at 37 °C. Then samples were quenched with 1/10 volume of 5 M KOH and hydrolyzed for 30 min at 37 °C. Samples were neutralized with 1/10 volume of glacial acetic acid and analyzed by reversed-phase HPLC on RP8 (Merck) with an acetonitrile gradient in 0.1% trifluoroacetic acid. Percentage of synthesized dipeptide was determined by incorporation of the radioactive label as a ratio of peptide formed to the amount of the 70S ribosomes in the reaction mixture, as described earlier. Experiments were done in three replicates.

In the next series the test system is E. coli BW25113. The experiment in a line: MIC broth microdilution. The series is classed as cell-based, Escherichia coli. The following applies: 24 h 37 °C, median of ≥3 experiments; for Minimum inhibitory concentration MHB: Mueller-Hinton broth without salt. The protocol: (§1) The reduction of resazurin to resorufin was recorded.
On the technique in general: In broth dilution the organism is exposed to a series of concentrations in liquid medium.

The next series relates to E. coli BW25113 ΔsbmA. The series is classed as cell-based, Escherichia coli. The protocol:
as §1

The next series concerns E. cloacae XDR CI 4172. In kind it is cell-based, Enterobacter cloacae. Conditions: XDR CI 4172, 24 h. The protocol:
as §1

The next series deals with S. aureus ATCC 29213. The series is classed as cell-based, Staphylococcus aureus. Conditions: ATCC 29213, 24 h. The protocol:
as §1

Series [2] has as its system Mycobacterium smegmatis mc(2)155. In kind it is cell-based. Conditions: Mycobacterium mc(2)155, 24 h. How it is done: as §1
Series [3] deals with human red blood cells (hRBC). The series is described as follows: Hemolysis (hemoglobin release assay). The series is classed as cell-based. Conditions: mean. How it is done: (§2) Hemolytic activity of the peptides was tested against the fresh suspension of human red blood cells (hRBC) using the hemoglobin release assay as described previously. Two experiments were performed with the hRBC from blood samples collected from healthy donors by certified medical personnel upon informed written consent. All procedures were approved by the Ethics Committee of the Institute of Experimental Medicine (protocol 1/20 of 2/27/2020) and comply with the ethical principles of the Declaration of Helsinki. The quantitative data were represented as average means with standard deviations. The colorimetric 3-(4,5-dimethylthiazol-2-yl)-2,5-diphenyltetrazolium bromide (MTT) dye reduction assay was used to determine cytotoxicity of the peptides against human keratinocyte cell line (HaCaT) and transformed human embryonic kidney cells (HEK293T). Both cell lines were purchased from American Type Culture Collection (ATCC). 10^4 cells per well in Dulbecco’s modified Eagle’s medium (DMEM/F12) supplemented with 10% fetal bovine serum (FBS, Invitrogen) were placed into 96-well plates and then cultured in the CO2-incubator (5% CO2, 37 °C). After the media were removed, the peptides were dissolved in 100 µL of the same medium and added to cell cultures at different final concentrations. 20 h later, 20 μL of MTT (5 mg/mL, Sigma) was added to each well, and the plates were incubated for 4 h at 37 °C. Then, the media were discarded and 100 µL DMSO-isopropanol mixture at a ratio of 1:1 (v/v) was added to each well to dissolve the crystallized formazan. The absorbance at 570 nm was measured by a microplate reader AF2200 (Eppendorf). An optical density in the wells containing cells cultured without the peptides was assumed to represent 100% cell viability. Two independent experiments were performed for each peptide.

The test system of series [4] is HEK293T (transformed embryonic kidney cells). The experiment in a line: MTT cytotoxicity. In kind it is cell-based, human. The following applies: mean. The protocol:
as §2

Another series deals with HaCaT (keratinocytes). The series is described as follows: MTT cytotoxicity. The series is classed as cell-based, human. How it is done: as §2
Another series deals with E. coli. The series is classed as cell-based, Escherichia coli. From the text: of bacterial cells washed with sodium phosphate buffer, whereas the addition of 0.9% NaCl and/or divalent cations minimized or even abolished the activity (Supplementary Fig. 14). The same was true for Bac7[1-22] in most cases (Supplementary Fig. 14), except for the maximum […]
“NaPB + 0.9% NaCl”), at which significant outer membrane damage was observed. Thus, in the context of the host immune system operating in a complex environment containing NaCl and divalent cations, the most likely scenario is that rumicidin's ability to disrupt the integrity of the outer membrane is suppressed. Antibacterial activity of rumicidin-1 is inhibited in the presence […]
mixture, respectively), and the electrical double layer around the cell seems to be a key barrier on the way into the cell of highly charged and relatively hydrophilic PrAMP. Perhaps, translocation of rumicidin-1 into the periplasmic space depends on electrostatic interaction with the outer membrane followed by porin-mediated uptake (the gene knockout of ompF resulted in a 4-fold increase in MIC, Fig. 5a). […]
Fig. 4), (iv) experiments on inhibition of peptide bond formation Supplementary Fig. 5, and (v) structural studies of the rumicidin complex with the ribosome by Cryo-EM (Fig.4).
Point 2. Authors claim that the effect of these peptides on membrane integrity may be due to the presence of aromatic Trp and Phe residues in their structure. However, effect of the rumicidin-1 variant W23A,F24A is not shown.
To fill this gap, we performed a comparative analysis of the ability of rumicidin-1 and its analogue [W23A,F24A] to increase the permeability of E. coli membranes under different environmental conditions. In all cases in the […]

In series [5] the test system is E. coli 1057 R2 (rpoS^Q3stop, macB^N470D). The following applies: MHB + 0.9% NaCl. The protocol:
Minimum inhibitory concentrations (MIC) were determined by broth microdilution assay based on Clinical and Laboratory Standards Institute (CLSI) guidelines using BSA in the growth medium to minimize AMP nonspecific adsorption. Bacterial test cultures were grown in the Mueller-Hinton broth (MHB, Sigma) at 37 °C to mid-log phase and then diluted with the 2× MH medium supplemented with 1.8% NaCl (or without salt) so that to reach a final cell concentration of 10^6 CFU/mL. 50 µL of the obtained bacterial suspension were added to aliquots of 50 µL of the peptide solutions serially diluted with sterilized 0.1% bovine serum albumin (BSA) in 96-well flat-bottom polystyrene microplates (Eppendorf #0030730011). […] To verify MIC values, the respiratory activity of the bacteria was determined. Briefly, 5 µL of 0.5 mg/mL resazurin (Sigma) was added to the wells after 24 h (or after 48 h for M. smegmatis) of incubation, and the plate was incubated for additional 3 h. In some cases, MICs were determined in the Lysogeny Broth (LB) or Middlebrook 7H9 medium. The reduction of resazurin to resorufin was recorded. […] The results were expressed as the median values determined based on at least three independent experiments performed in triplicate.
Resistance induction experiments were performed using the previously described method. This approach allows for monitoring MIC values after each transfer. Briefly, on the first day, the overnight culture of the wild-type bacteria was diluted with the 2× MHB supplemented with 1.8% NaCl (or without salt) to reach a final cell concentration of 10^6 CFU/mL. 50 µL of the obtained bacterial suspension were added to aliquots of 50 µL of the peptide solutions serially diluted with the sterilized 0.1% BSA in 96-well flat-bottom polystyrene microplates. After incubation for 20 ± 2 h at 37 °C and 950 rpm, MICs were determined as described above. For each subsequent daily transfer, 2–4 μL of the inoculum taken from the first well containing a sub-inhibitory drug concentration was diluted with 2 mL of the fresh 2× MHB supplemented with 1.8% NaCl (or without salt). […] Multiple repeated passages in the presence of antimicrobial agents were performed for each bacterial strain during the experiment. Bacteria that grew at the highest concentrations of AMPs on the final day were passaged further 3 times on drug-free agar plates before determining the final MIC value.

Method for E. coli 1057 WT: Minimum inhibitory concentrations (MIC) were determined by broth microdilution assay based on Clinical and Laboratory Standards Institute (CLSI) guidelines using BSA in the growth medium to minimize AMP nonspecific adsorption[49]. Bacterial test cultures were grown in the Mueller-Hinton broth (MHB, Sigma) at 37 °C to mid-log phase and then diluted with the 2× MH medium supplemented with 1.8% NaCl (or without salt) so that to reach a final cell concentration of 10^6 CFU/mL. 50 µL of the obtained bacterial suspension were added to aliquots of 50 µL of the peptide solutions serially diluted with sterilized 0.1% bovine serum albumin (BSA) in 96-well flat-bottom polystyrene microplates (Eppendorf #0030730011). […] To verify MIC values, the respiratory activity of the bacteria was determined. Briefly, 5 µL of 0.5 mg/mL resazurin (Sigma) was added to the wells after 24 h (or after 48 h for M. smegmatis) of incubation, and the plate was incubated for additional 3 h. In some cases, MICs were determined in the Lysogeny Broth (LB) or Middlebrook 7H9 medium. The reduction of resazurin to resorufin was recorded. […] The results were expressed as the median values determined based on at least three independent experiments performed in triplicate.

Turning to “Bac7[5-35]: Bac7 fragment lacking four N-terminal residues (RRIR) (PRPPRLPRPRPRPLPFPRPGPRPIPRPLPFP; Bactenecin-7; UniProt P19661 135-165, looked up, fragment)”, in the series on E. coli strains, the “fold increase in MIC on deletion of four N-terminal residues (RRIR)” value is recorded as at least 16 fold.

Consider “Bac7[5-23]: Bac7 fragment lacking four N-terminal residues (RRIR) (PRPPRLPRPRPRPLPFPRP; Bactenecin-7; UniProt P19661 135-153, looked up, fragment)”, for which the “fold increase in MIC on deletion of four N-terminal residues (RRIR)” value in the series on E. coli strains is recorded as at least 16 fold.

On to `CC[C@H]1OC(=O)[C@H](C)[C@@H](O[C@H]2C[C@@](C)(OC)[C@@H](O)[C@H](C)O2)[C@H](C)[C@@H](O[C@@H]2O[C@H](C)C[C@H](N(C)C)[C@H]2O)[C@](C)(O)C[C@@H](C)C(=O)[C@H](C)[C@@H](O)[C@]1(C)O` [Erythromycin], for which the reporter induction entry in series [1] is “strongly induced biosynthesis of Katushka2S, but not of RFP”. In addition, in the series on E. coli 1057 WT, the MIC is 1020 µM.

For the molecule `CC(C)C[C@H](NC(=O)[C@@H](O)[C@@H](O)[C@@H](N)CC(N)=O)[C@@H]1Cc2cccc(O)c2C(=O)O1` [amicoumacin A], in the series on 70S initiation complexes, the “fMet-[14C]Val dipeptide formed” value is reported as 72 ± 7%.

In the case of “RARRPRPPKPRPPHRPRPRPRPWFPPRFP [Rumicidin-1]”, the “Minimum inhibitory concentration MHB + 0.9% NaCl” value in the series on E. coli BW25113 (Mueller-Hinton broth + 0.9% NaCl, listed as WT) is 4 to 8 µM. The results for the “Minimum inhibitory concentration MHB” value in the series on E. coli BW25113 and in the series with E. coli BW25113 (listed as WT) were 1 µM and 2 µM, respectively. For the same molecule, the MIC in the series with E. coli BW25113 ΔsbmA (MHB + 0.9% NaCl) is at least 64 µM; in the series with E. coli BW25113 ΔsbmA (salt-free MHB), 1 µM; against E. coli (MH medium with NaCl), 4 µM; with E. coli (MH medium with NaCl and divalent cations (mixture)), 16 to 32 µM; in the series with E. coli (MH medium with divalent cations), 8 µM; with E. coli (salt-free MH medium), 1 µM. The “MIC E. cloacae XDR CI 4172” value against E. cloacae XDR CI 4172 is 2 µM. Besides, in the series with S. aureus ATCC 29213, the “MIC S. aureus ATCC 29213” value is above 32 µM. Moreover, the “MICs depending on the test medium” value in series [2] is 0.125 to 0.5 µM. Moreover, the Hemolysis in series [3] (0.25 µM) is recorded as 0.134%; in [3] (0.5 µM), 0.357%; in series [3] (1 µM), 0.408%; in series [3] (2 µM), 0.624%; in series [3] (4 µM) it was 0.667%; in series [3] (8 µM), 0.801%. The Hemolysis in series [3] (16 µM) was determined as 0.83%; in [3] (32 µM), 0.911%; in series [3] (64 µM), 0.932%. Also, the HEK293T cell viability in series [4] (1 µM) came to 105.704%; in [4] (2 µM), 104.142%; in series [4] (4 µM), 106.626%; in [4] (8 µM), 103.664%; in [4] (16 µM), 105.32%; in [4] (32 µM), 89.704%. Further, in series [4] (64 µM), the HEK293T cell viability was determined as 72.479%. In addition, the HaCaT cell viability is on record as 104.258% in the series on HaCaT (keratinocytes) (1 µM); 105.615% with HaCaT (keratinocytes) (2 µM); 107.778% in the series with HaCaT (keratinocytes) (4 µM); 104.973% with HaCaT (keratinocytes) (8 µM); 107.318% in the series on HaCaT (keratinocytes) (16 µM); 107.645% in the series on HaCaT (keratinocytes) (32 µM). Besides, the HaCaT cell viability with HaCaT (keratinocytes) (64 µM) came to 99.839%.

“RDRRRRPPRPRPPHRPRPRPLPWFPPRFP [Rumicidin-2]”: the MIC in [5] is above 64 µM. The “MIC S. aureus ATCC 29213” value in the series on S. aureus ATCC 29213 is above 32 µM. Also, the “Minimum inhibitory concentration (MIC)” value in series [2] is listed as 1 µM.
